Assays:
[1] = target: Carbonic anhydrase 2 (Homo sapiens, UniProt P00918); test: Inhibition of recombinant human carbonic anhydrase 2 incubated for 15 mins prior to testing measured for 10 to 100 secs by phenol red based stopped-flow CO2 hydration assay
[2] = target: Carbonic anhydrase 4 (Homo sapiens, UniProt P22748); test: Inhibition of recombinant human carbonic anhydrase 4 incubated for 15 mins prior to testing measured for 10 to 100 secs by phenol red based stopped-flow CO2 hydration assay
[3] = target: Carbonic anhydrase 1 (Homo sapiens, UniProt P00915); test: Inhibition of recombinant human carbonic anhydrase 1 incubated for 15 mins prior to testing measured for 10 to 100 secs by phenol red based stopped-flow CO2 hydration assay
[4] = target: Carbonic anhydrase 7 (Homo sapiens, UniProt P43166); test: Inhibition of recombinant human carbonic anhydrase 7 incubated for 15 mins prior to testing measured for 10 to 100 secs by phenol red based stopped-flow CO2 hydration assay
Sequence of Carbonic anhydrase 7 (P43166 whole entry): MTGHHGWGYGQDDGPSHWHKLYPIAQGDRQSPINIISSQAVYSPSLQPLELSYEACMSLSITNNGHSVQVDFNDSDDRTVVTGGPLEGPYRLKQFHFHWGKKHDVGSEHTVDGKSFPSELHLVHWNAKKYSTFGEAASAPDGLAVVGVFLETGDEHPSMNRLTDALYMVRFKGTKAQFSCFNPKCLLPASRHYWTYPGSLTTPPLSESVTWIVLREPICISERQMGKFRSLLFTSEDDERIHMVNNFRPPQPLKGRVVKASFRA

Sequence of Carbonic anhydrase 4 (P22748 whole entry): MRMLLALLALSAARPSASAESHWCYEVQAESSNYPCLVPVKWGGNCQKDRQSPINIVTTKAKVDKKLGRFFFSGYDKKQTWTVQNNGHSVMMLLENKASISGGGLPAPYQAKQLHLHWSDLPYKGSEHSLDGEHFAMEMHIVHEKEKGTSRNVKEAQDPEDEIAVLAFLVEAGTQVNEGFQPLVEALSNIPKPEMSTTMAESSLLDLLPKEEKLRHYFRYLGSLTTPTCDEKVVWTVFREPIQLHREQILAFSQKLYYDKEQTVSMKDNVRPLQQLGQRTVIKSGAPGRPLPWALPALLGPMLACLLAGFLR
Sequence of Carbonic anhydrase 1 (P00915 whole entry): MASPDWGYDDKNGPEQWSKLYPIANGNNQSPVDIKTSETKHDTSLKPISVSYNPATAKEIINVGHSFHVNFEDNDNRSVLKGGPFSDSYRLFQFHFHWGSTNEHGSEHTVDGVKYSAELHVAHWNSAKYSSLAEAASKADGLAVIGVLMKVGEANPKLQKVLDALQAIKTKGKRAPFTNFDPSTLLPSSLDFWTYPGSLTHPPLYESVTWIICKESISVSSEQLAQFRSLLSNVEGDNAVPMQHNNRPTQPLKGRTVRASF

Ki [1] | Ki [2] | Ki [3] | Ki [4] | SMILES
848 nM | – | – | – | NS(=O)(=O)c1ccc(C2=NCCN2c2cccnc2)cc1
61.7 nM | – | – | – | Cc1ccccc1N1CCN=C1c1ccc(S(N)(=O)=O)cc1
46.7 nM | 8140 nM | 960 nM | 269 nM | NS(=O)(=O)c1ccc(N2CCN=C2c2ccc(Cl)cc2)cc1
376 nM | – | – | – | NS(=O)(=O)c1ccc(C2=NCCN2c2ccccc2)cc1
742 nM | – | – | – | NS(=O)(=O)c1ccc(C2=NCCN2c2ccc(F)cc2)cc1
182 nM | – | – | – | NS(=O)(=O)c1ccc(C2=NCCN2c2ccc(Cl)cc2)cc1
703 nM | – | – | – | NS(=O)(=O)c1ccc(C2=NCCN2c2cncnc2)cc1
724 nM | – | – | – | COc1ccc(N2CCN=C2c2ccc(S(N)(=O)=O)cc2)cc1OC
53.3 nM | – | – | – | COc1ccc(N2CCN=C2c2ccc(S(N)(=O)=O)cc2)cc1
866 nM | – | – | – | CCOc1ccccc1N1CCN=C1c1ccc(S(N)(=O)=O)cc1
76.1 nM | 9730 nM | 2340 nM | 303 nM | NS(=O)(=O)c1ccc(N2CCN=C2c2ccc(F)cc2)cc1

Source: ChEMBL document CHEMBL4130530, “Lucky Switcheroo: Dramatic Potency and Selectivity Improvement of Imidazoline Inhibitors of Human Carbonic Anhydrase VII” (ACS Med Chem Lett, 2017)
